In patent US20210196671A1, “COMPOSITIONS COMPRISING 3'-O-METHYL-4'-O-SULFATE EPICATECHIN AND THERAPEUTIC USES OF SUCH COMPOSITIONS” (SOCIÉTÉ DES PRODUITS NESTLÉ S.A., priority 2016, published 2021):

Molecular target: T1, h-TRPA1 (Homo sapiens, UniProt O75762)
T1 construct: expressed in transfected cells; host or cells: CHO cells
Test: activation of CHO cells expressing h-TRPA1, calcium imaging
Type: cell-based
Procedure: Several epicatechin metabolites were tested in vitro to determine if any of these compounds are an agonist of the cation channel of TRPA1. Specifically, the activation of CHO cells expressing h-TRPA1 was tested according to the calcium imaging method described in Riera et al. (Riera, C. E., Vogel, H., Simon, S. A., Damak, S., & le Coutre, J. Sensory attributes of complex tasting divalent salts are mediated by TRPM5 and TRPV1 channels. J. Neurosci. 29, 2654-2662 (2009)).

[1] = concentration (max) tested 100 mM
[2] = concentration (max) tested 3 mM

T1 sequence (O75762 whole entry): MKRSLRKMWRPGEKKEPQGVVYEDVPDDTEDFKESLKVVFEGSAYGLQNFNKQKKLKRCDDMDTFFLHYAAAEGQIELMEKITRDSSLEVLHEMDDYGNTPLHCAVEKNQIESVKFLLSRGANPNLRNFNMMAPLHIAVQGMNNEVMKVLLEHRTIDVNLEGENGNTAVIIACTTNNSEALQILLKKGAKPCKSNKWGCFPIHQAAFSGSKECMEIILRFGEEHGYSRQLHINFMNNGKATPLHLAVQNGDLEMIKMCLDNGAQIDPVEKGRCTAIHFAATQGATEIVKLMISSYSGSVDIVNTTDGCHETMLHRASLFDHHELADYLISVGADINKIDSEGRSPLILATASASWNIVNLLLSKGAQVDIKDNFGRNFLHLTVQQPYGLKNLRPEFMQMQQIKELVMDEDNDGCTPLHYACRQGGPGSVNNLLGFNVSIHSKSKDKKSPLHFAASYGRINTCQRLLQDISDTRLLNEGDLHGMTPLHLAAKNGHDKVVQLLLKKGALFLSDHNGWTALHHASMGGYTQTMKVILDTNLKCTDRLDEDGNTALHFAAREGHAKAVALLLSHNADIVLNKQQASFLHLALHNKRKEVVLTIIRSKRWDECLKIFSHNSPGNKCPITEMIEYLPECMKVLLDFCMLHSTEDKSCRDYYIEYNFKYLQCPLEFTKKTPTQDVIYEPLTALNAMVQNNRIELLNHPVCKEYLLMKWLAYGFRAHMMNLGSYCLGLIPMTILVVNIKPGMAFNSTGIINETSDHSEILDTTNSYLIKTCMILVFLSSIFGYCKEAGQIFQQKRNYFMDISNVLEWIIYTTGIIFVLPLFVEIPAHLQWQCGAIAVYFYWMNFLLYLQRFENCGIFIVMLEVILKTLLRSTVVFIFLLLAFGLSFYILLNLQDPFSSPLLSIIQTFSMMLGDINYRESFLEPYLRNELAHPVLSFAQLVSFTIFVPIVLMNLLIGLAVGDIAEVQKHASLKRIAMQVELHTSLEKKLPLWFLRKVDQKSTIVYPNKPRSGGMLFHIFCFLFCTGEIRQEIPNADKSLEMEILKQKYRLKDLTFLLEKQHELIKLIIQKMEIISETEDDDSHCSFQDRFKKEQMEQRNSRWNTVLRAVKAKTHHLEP

| Compound | Activity vs hTRPA1 [1] | Activity vs hTRPA1 [2] | further results |
| --- | --- | --- | --- |
| COc1cc([C@H]2Oc3cc(O)cc(O)c3C[C@H]2O)ccc1OS(=O)(=O)O [3′-O-methyl-4′-O-sulfate-EC, 3′-O-methyl-4′-O-sulfate epicatechin] |  |  | Activity vs hTRPA1 (concentration (max) tested 1 mM): Active |
| COc1cc([C@H]2Oc3cc(OS(=O)(=O)O)cc(O)c3C[C@H]2O)ccc1O [3′-O-methyl-7-O-sulfate-EC] | Inactive |  |  |
| COc1cc([C@H]2Oc3cc(O)cc(O)c3C[C@H]2O)ccc1O [3′-O-methyl-EC] | Inactive |  |  |
| O=S(=O)(O)Oc1cc([C@H]2Oc3cc(O)cc(O)c3C[C@H]2O)ccc1O [3′-O-sulfate-EC] | Inactive |  |  |
| COc1ccc([C@H]2Oc3cc(O)cc(O)c3C[C@H]2O)cc1O [4′-O-methyl-EC] | Inactive |  |  |
| O=S(=O)(O)Oc1ccc([C@H]2Oc3cc(O)cc(O)c3C[C@H]2O)cc1O [4′-O-sulfate-EC] | Inactive |  |  |
| COc1ccc(C2CC(=O)c3c(O)cc(O)cc3O2)cc1O[C@@H]1O[C@H](C(=O)O)[C@@H](O)[C@H](O)[C@H]1O (stereo partly drawn) [Hesperetin-3-O-Glucuronide] |  | Inactive |  |
| Hesperetin-4-O-Glucuronide |  | Inactive |  |
| Hesperetin-7-3-O-Glucuronide |  | Inactive |  |
